The values below come from patent publication US7429473B2, “Diacylglycerol acyltransferase genes, proteins, and uses thereof” (Michigan State University, priority 2003, dated 2008).

As a reminder, the Km is the concentration of substrate that gives half-maximal velocity.

The test relates to Euonymus alata diacylglycerol acetyltransferase (AcDAGAT), native enzyme activity in cell free homogenate of endosperm plus embryo. Kind of test: AcDAGAT assay with [1-14C]acetyl-CoA in cell free homogenate (CFH) of developing Euonymus alata seeds. The test is classed as biochemical. As for the experimental part:
Characterization of acyltransferase activity by in vitro assays. Acyltransferase activity was assayed by incubating [^14C]acetyl-CoA with cell free extracts from developing Euonymus alata seeds and exogenous 1,2-diacylglycerol (DAG). Total lipids were extracted, radioactivity assayed, then the amount of label in the 1,2-diacyl-3-acetin fraction determined by TLC. There was a very high (greater than about 20-fold), largely soluble acetyl-CoA hydrolase activity that competed with the transferase for substrate.
All procedures were carried out on ice or at 4° C. Frozen embryo and endosperm tissue was added to two volumes of chilled buffer containing 0.3 M sucrose, 10 mM NaF, 5 mM MgCl2, 2 mM dithiothreitol, 1 mM EDTA and 40 mM Hepes -NaOH (pH 7.4), homogenized, and filtered through two layers of Miracloth. The residue was rehomogenized in two more volumes of buffer and filtered. The filtrates were combined and constitute the cell free homogenate (CFH). The CFH was frozen and stored at −70° C. until used and typically contained 12-17 mg protein/ml. Protein concentrations were estimated using the Bio-Rad protein assay, which is based on the Bradford method (1976), using bovine serum albumin as the standard.
The standard (Ac)DAGAT assay contained [1-^14C]acetyl-CoA (100 μM, 200,000 d.p.m.) plus 140 μl of homogenization buffer in a total volume of 200 μl. 1,2-dioleoyl-sn-glycerol (50 μg, 0.4 mM) was added as 1 μl of ethanol solution. The assay was initiated by adding 20 μl of CFH. The reaction was run at room temperature (25° C.) for 1S min and terminated by the addition of hot isopropanol (1 ml). Lipids were extracted with hexane and isopropanol as described by Hara and Radin (1978). The [^14C]lipid residue was dissolved in hexane and an aliquot assayed for radioactivity by liquid scintillation counting. The standard long-chain DAGAT assay contained 20 μM [1-^14C]palmitoyl-CoA and 20-40 μl of CFH and was run for 30 minutes: all other aspects were as for acetyl DAGAT assays.
Incubation of cell free homogenates (CFH) from developing Euonymus alata endosperm plus embryo tissues with [^14C]acetyl-CoA produced labeled lipids. […] Long-chain TAG elutes ahead of Ac-TAG in this solvent system. When this labeled band was recovered and analyzed by C 18 reversed-phase TLC, the radioactivity migrated with the mass bands corresponding to the major Ac-TAG molecular species, namely C16/C18 and C18/C18. When a unique exogenous diacylglycerol, 1,2-dihexanoyl-sn-glycerol, was added to the assays, a novel band appeared that co-chromatographed with the synthetic 3-acetyl-1,2-dihexanoin standard in both normal and reverse phase TLC systems. The migration of the standard was confirmed by GC analysis of recovered fractions from the TLC plates. […]

Turning to `CC(=O)SCCNC(=O)CCNC(=O)[C@H](O)C(C)(C)COP(=O)(O)OP(=O)(O)OC[C@H]1O[C@@H](n2cnc3c(N)ncnc32)[C@H](O)[C@@H]1OP(=O)(O)O` [acetyl-CoA], the Km (Lineweaver-Burke reciprocal plot, CFH, 25° C.) was 100 µM. The “Vmax (estimate from acetyl-CoA concentration curve)” value (acetyl-CoA concentration curve, cell free extracts of developing seeds) is on record as 120 nmoles/hour/gram fresh weight seed tissue. In addition, the Vmax (acetyl-CoA varied, Lineweaver-Burke reciprocal plot, CFH) was determined as 2.5 nmoles/min/gfw.

Consider `CCCCCCCC/C=C\CCCCCCCC(=O)OC[C@H](CO)OC(=O)CCCCCCC/C=C\CCCCCCCC` [sn-1,2-diolein, 1,2-dioleoyl-sn-glycerol], for which the “average enhancement of AcDAGAT activity by exogenous sn-1,2-diolein” value (0.1-1.2 mM sn-1,2-diolein added, endogenous DAG present) is on record as 30%.
